# US20080287544A1, “Method for Screening Substance by Measuring PPAR DELTA Activating Effect and Agent” (Teijin Limited, priority 2001, published 2008)
# What was measured:
# [1] = test system: UCP2; conditions: J. Biol. Chem. 276, 10853-10860 (2001); cited from earlier work
# [2] = test system: human white adipocytes; assay: Free fatty acid β-oxidation in human white adipocytes ([9,10(n)-3H]palmitic acid, 3H2O release); format: cell-based; conditions: 10 μM, 48 hr, vs DMSO control
# Experimental: After human fully differentiated white adipocytes had been prepared in the same manner as in Example 1, the supernatant was removed, and 500 μl of a medium which had been prepared by adding adequate amounts of oleic acid and palmitic acid to an adipocyte medium so that their concentrations were 0.67 mM and 0.33 mM, respectively, was added. Various kinds of test compounds were added to the medium in such a manner that their final concentrations were 10 μM, and subsequently, [9,10(n)-3H]palmitic acid (manufactured by Amersham Pharmacia, final concentration of 1 μCi/ml) was added to each well, and the cells were cultured at 37° C. for 48 hr. The test compounds were YM-16638 of a PPAR δ ligand, WY14643 of a PPAR α ligand, L755,507 of a β3 adrenergic receptor agonist and Rosiglitazone of a PPAR γ ligand. A control was prepared by adding DMSO, which was the solvent for the test compounds, in such a manner that the final concentration was 0.5%, and it was cultured in the same manner as the test compounds. In order to prevent the evaporation of ^3H2O produced by β-oxidation of the [9,10(n)-^3H]palmitic acid by the cells during culture, the culture plates were sealed with mini-culture filters (MS-30055) manufactured by Sumitomo Bakelite Co. Ltd.
# After 48-hour culture, 200 μl of the supernatant of the medium was transferred to a 1.5-ml Eppendorf tube, 50 μl of 50% trichloroacetic acid was added, the tube was held on ice for 30 min to produce precipitates, and the mixture was centrifuged for 10 min at 15,000 rpm. Subsequently, in a 20-ml glass vial into which 500 μl of distilled water had been placed in advance, a cap-free 1.5-ml Eppendorf tube was placed, the total amount of the supernatant obtained above was placed into this Eppendorf tube, and the vial was tightly sealed with a polypropylene packing-attached lid. […] Into the ^3H2O-containing distilled water remaining in the vial, 5 ml of a liquid scintillation cocktail (Ultima Gold, manufactured by Packard) was added, and radioactivity was measured after sufficient mixing.
# [3] = test system: UCP1; assay: UCP1 expression-enhancing effect in skeletal muscle cells or adipocytes; format: cell-based
Compound,expression of UCP2 [1],enhancement of β-oxidation in the cells [2],UCP1 expression-enhancing effect [3]
"CCCc1c(OCCCOc2ccc(OCC(=O)O)cc2)ccc(C(C)=O)c1O [L-165041, 4-(3-(2-propyl-3-hydroxy-4-acetyl-phenoxy)propyloxy)-phenoxyacetic acid]",increase the expression of UCP2,,
"CCCCCCNC(=O)Nc1ccc(S(=O)(=O)Nc2ccc(CCNC[C@H](O)COc3ccc(O)cc3)cc2)cc1 [L755,507]",,no enhancement,
"CCCCC[C@H](O)/C=C/[C@@H]1[C@H]2C/C(=C/CCCC(=O)O)C[C@H]2C[C@H]1O [carbaprostacyclin, 6,9 α-methylene-11 α, 15S-dihydroxy-prosta-5E, 13E-dien-1-oic acid]",increase the expression of UCP2,,had a UCP1 expression-enhancing effect
CCCCC/C=C\C/C=C\C/C=C\C/C=C\CCCC(=O)O [arachidonic acid],increase the expression of UCP2,,
CN(CCOc1ccc(CC2SC(=O)NC2=O)cc1)c1ccccn1 (stereo not drawn) [Rosiglitazone],,15%,
Cc1cccc(Nc2cc(Cl)nc(SCC(=O)O)n2)c1C [WY14643],,no enhancement,hardly exhibit a UCP1 expression enhancing effect
"CC#CCC(C)[C@H](O)/C=C/[C@@H]1[C@H]2C/C(=C/CCCC(=O)O)C[C@H]2C[C@H]1O (stereo partly drawn) [Iloprost, 5-{(E)-(1S,5S,6R,7R)-7-hydroxy-6-[(E)-(3S,4RS)-3-hydroxy-4-methyl-5-octen-6-inyl]-bicyclo[3.3.0]-octan-3-ylidene} pentenoic acid]",,,had a UCP1 expression-enhancing effect
